Laboratory results published in US12600728B2, “Interleukin-17 inhibitors” (priority 2020, dated 2026).
Like-named read-outs stand apart in the source and are kept apart here.

Assays:
[1] = target: recombinant human IL-17AA (Homo sapiens, UniProt Q16552); experiment: IL-6 release from NHDF cells, IL-17AA plus TNF-α stimulation; type: cell-based; settings: IL-17AA 30 pM plus TNF-α 6 pM, 24 hours, IL-6 by ELISA
Summary of the method: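 IL-17-specific IL-6 release from NHDF cells adhered overnight; compounds pre-incubated 30 min at room temperature with human IL-17AA plus TNF-α, then 24 h on cells at 37° C. Final DMSO 0.1% or plasma 20%; IL-6 by ELISA (450 nm). TNF-α-only IL-6 subtracted before IC50 fit.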

[2] = target: biotinylated human IL-17A / AF647-labeled human IL-17RA (Homo sapiens, UniProt Q16552); experiment: Human IL-17A×IL-17RA TR-FRET assay; type: binding; settings: biotinylated human IL-17A 5 nM, AF647-labeled human IL-17RA 30 nM
Chain of biotinylated human IL-17A / AF647-labeled human IL-17RA (Q16552 24-155): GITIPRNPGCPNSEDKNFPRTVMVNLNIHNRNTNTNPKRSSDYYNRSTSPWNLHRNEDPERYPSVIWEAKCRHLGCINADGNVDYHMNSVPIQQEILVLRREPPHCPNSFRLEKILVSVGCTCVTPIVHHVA
Summary of the method: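 Compounds tested in duplicate at each concentration; neutral controls contain all components with DMSO in place of compound.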

[3] = NHDF cells, read-out: IL17AA + TNF IC50 IL-6
[4] = TR-FRET, read-out: IL17AA FRET/ IL17Rawt IC50
[5] = IL17AA + TNF IC50 IL-6, NHDF cells
[6] = IL17AA FRET/ IL17Rawt IC50, TR-FRET

Chain of recombinant human IL-17AA (Q16552 24-155): as above

IC50 [1, 3] [nM] | IC50 [2, 4] [nM] | SMILES | IC50 [1, 5] [nM] | IC50 [2, 6] [nM]
56 | 49 | Cc1c(-c2ccc(NC(=O)[C@@H](NC(=O)c3ccnn3C)C3CCCCC3)c(F)c2)c(Cl)cc[n+]1[O-] [Example 59, (S)-4-chloro-3-(4-(2-cyclohexyl-2-(1-methyl-1H-pyrazole-5-carboxamido)acetamido)-3-fluorophenyl)-2-methylpyridine 1-oxide] |  | 
236 | 123 | Cc1c(-c2ccc(NC(=O)[C@@H](NC(=O)c3ccnn3C)C3CCCCC3)nc2)c(Cl)cc[n+]1[O-] [Example 60, (S)-4-chloro-6′-(2-cyclohexyl-2-(1-methyl-1H-pyrazole-5-carboxamido)acetamido)-2-methyl-[3,3′-bipyridine] 1-oxide] |  | 
16 | 18 | Cc1c(-c2c(F)cc(NC(=O)[C@@H](NC(=O)c3ccnn3C)C3CCCCC3)cc2F)c(Cl)cc[n+]1[O-] [Example 61, (S)-4-chloro-3-(4-(2-cyclohexyl-2-(1-methyl-1H-pyrazole-5-carboxamido)acetamido)-2,6-difluorophenyl)-2-methylpyridine 1-oxide] |  | 
7 | 15 | Cc1c(-c2ccc(NC(=O)[C@@H](NC(=O)c3ccnn3C)C3CCCCC3)c(F)c2F)c(Cl)cc[n+]1[O-] [Example 62, 4-chloro-3-(4-((S)-2-cyclohexyl-2-(1-methyl-1H-pyrazole-5-carboxamido)acetamido)-2,3-difluorophenyl)-2-methylpyridine 1-oxide] |  | 
57 | 247 | Cc1c(-c2cc(F)c(NC(=O)[C@@H](NC(=O)c3ccnn3C)C3CCCCC3)cc2F)c(Cl)cc[n+]1[O-] [Example 63, 4-chloro-3-(4-((S)-2-cyclohexyl-2-(1-methyl-1H-pyrazole-5-carboxamido)acetamido)-2,5-difluorophenyl)-2-methylpyridine 1-oxide] |  | 
24 | 57 | Cc1c(-c2ccc(NC(=O)[C@@H](NC(=O)c3ccnn3C)C3CC=C(F)CC3)cc2)c(C(F)(F)F)cc[n+]1[O-] (stereo partly drawn) [Example 65, 3-(4-((2S)-2-(4-fluorocyclohex-3-en-1-yl)-2-(1-methyl-1H-pyrazole-5-carboxamido)acetamido)phenyl)-2-methyl-4-(trifluoromethyl)pyridine 1-oxide] |  | 
4 | 18 | Cc1c(-c2ccc(NC(=O)[C@@H](NC(=O)c3ccnn3C)C3CCCCC3)cc2F)c(C(F)(F)F)cc[n+]1[O-] [Example 66, 3-(4-((S)-2-cyclohexyl-2-(1-methyl-1H-pyrazole-5-carboxamido)acetamido)-2-fluorophenyl)-2-methyl-4-(trifluoromethyl)pyridine 1-oxide] |  | 
15 | 124 | Cc1c(-c2ccc(NC(=O)[C@@H](NC(=O)c3ccnn3C)C3CCCCC3)cc2)c(C(F)(F)F)cc[n+]1[O-] [Example 67, (S)-3-(4-(2-cyclohexyl-2-(1-methyl-1H-pyrazole-5-carboxamido)acetamido)phenyl)-2-methyl-4-(trifluoromethyl)pyridine 1-oxide] |  | 
16 | 76 | Cc1cc[n+]([O-])c(C)c1-c1ccc(NC(=O)[C@@H](NC(=O)c2ccnn2C(C)C)C(c2ccccc2)c2ccccc2)cc1 [Example 68, (S)-3-(4-(2-(1-isopropyl-1H-pyrazole-5-carboxamido)-3,3-diphenylpropanamido)phenyl)-2,4-dimethylpyridine 1-oxide] |  | 
20 | 90 | Cc1c(-c2ccc(NC(=O)[C@@H](NC(=O)c3ccnn3C)C(c3ccccc3)c3ccccc3)cc2)c(Cl)cc[n+]1[O-] [Example 69, (S)-4-chloro-2-methyl-3-(4-(2-(1-methyl-1H-pyrazole-5-carboxamido)-3,3-diphenylpropanamido)phenyl)pyridine 1-oxide] |  | 
26 | 84 | CCn1nccc1C(=O)NC(C(=O)Nc1ccc(-c2c(Cl)cc[n+]([O-])c2C)cc1)C1CC2CC2C1 (centres unmarked) [Example 70, 3-(4-(2-(bicyclo[3.1.0]hexan-3-yl)-2-(1-ethyl-1H-pyrazole-5-carboxamido)acetamido)phenyl)-4-chloro-2-methylpyridine 1-oxide] |  | 
35 | 86 | Cc1nocc1C(=O)NC(C(=O)Nc1ccc(-c2c(Cl)cc[n+]([O-])c2C)cc1)C1CC2CC2C1 (centres unmarked) [Example 71, 3-(4-(2-(bicyclo[3.1.0]hexan-3-yl)-2-(3-methylisoxazole-4-carboxamido)acetamido)phenyl)-4-chloro-2-methylpyridine 1-oxide] |  | 
3400 | 454 | Cc1cc[n+]([O-])c(C)c1-c1ccc(NC(=O)[C@H](Cc2ccccc2F)NC(=O)c2conc2C)cc1 [Example 72, (S)-3-(4-(3-(2-fluorophenyl)-2-(3-methylisoxazole-4-carboxamido)propanamido)phenyl)-2,4-dimethylpyridine 1-oxide] |  | 
> 10000 | 1530 | Cc1cc[n+]([O-])c(C)c1-c1ccc(NC(=O)[C@H](Cc2ccccc2)NC(=O)c2conc2C)cc1 [Example 74, (S)-2,4-dimethyl-3-(4-(2-(3-methylisoxazole-4-carboxamido)-3-phenylpropanamido)phenyl)pyridine 1-oxide] |  | 
> 10000 | 2640 | Cc1cc[n+]([O-])c(C)c1-c1ccc(NC(=O)[C@H](Cc2ccccc2)NC(=O)c2ccnn2C)cc1 [Example 75, (S)-2,4-dimethyl-3-(4-(2-(1-methyl-1H-pyrazole-5-carboxamido)-3-phenylpropanamido)phenyl)pyridine 1-oxide] |  | 
151 | 436 | Cc1c(-c2ccc(NC(=O)[C@@H](NC(=O)c3ccnn3CCN(C)C)C3CCCCC3)cc2F)c(Cl)cc[n+]1[O-] [Example 77, 4-chloro-3-(4-((S)-2-cyclohexyl-2-(1-(2-(dimethylamino)ethyl)-1H-pyrazole-5-carboxamido)acetamido)-2-fluorophenyl)-2-methylpyridine 1-oxide] |  | 
35 | 85 | Cc1c(-c2ccc(NC(=O)[C@@H](NC(=O)c3ccnn3C(C)C)C3CCCCC3)cc2F)ccc[n+]1[O-] [Example 82, (S)-3-(4-(2-cyclohexyl-2-(1-isopropyl-1H-pyrazole-5-carboxamido)acetamido)-2-fluorophenyl)-2-methylpyridine 1-oxide] |  | 
 |  | Cc1cc[n+]([O-])c(C)c1-c1ccc(NC(=O)C(NC(=O)c2ccnn2C)C2CCC(C)CC2)cc1F [Example 84, 3-(2-fluoro-4-((S)-2-(1-methyl-1H-pyrazole-5-carboxamido)-2-((1r,4S)-4-methylcyclohexyl)acetamido)phenyl)-2,4-dimethylpyridine 1-oxide] | 8 | 14
504 | 489 | Cc1cc[n+]([O-])c(C)c1-c1ccc(NC(=O)[C@@H](NC(=O)c2ccnn2C)C2CCC(F)(F)C2)cc1 (stereo partly drawn) [Example 87, 3-(4-((2S)-2-(3,3-difluorocyclopentyl)-2-(1-methyl-1H-pyrazole-5-carboxamido)acetamido)phenyl)-2,4-dimethylpyridine 1-oxide] |  | 
83 | 286 | Cc1cc[n+]([O-])c(Cl)c1-c1ccc(NC(=O)[C@@H](NC(=O)c2ccnn2C)C2CCCCC2)cc1 [Example 89, (S)-2-chloro-3-(4-(2-cyclohexyl-2-(1-methyl-1H-pyrazole-5-carboxamido)acetamido)phenyl)-4-methylpyridine 1-oxide] |  | 
5 | 65 | COCc1nocc1C(=O)N[C@H](C(=O)Nc1ccc(-c2c(Cl)cc[n+]([O-])c2C)c(F)c1)C1CCCCC1 [Example 90, 4-chloro-3-(4-((S)-2-cyclohexyl-2-(3-(methoxymethyl)isoxazole-4-carboxamido)acetamido)-2-fluorophenyl)-2-methylpyridine 1-oxide] |  | 
 |  | Cc1cc[n+]([O-])c(C)c1-c1ccc(NC(=O)C(NC(=O)c2ccnn2C)C2CCC(C(F)(F)F)CC2)cc1F [Example 91, 3-(2-fluoro-4-((S)-2-(1-methyl-1H-pyrazole-5-carboxamido)-2-((1r,4S)-4-(trifluoromethyl)cyclohexyl)acetamido)phenyl)-2,4-dimethylpyridine 1-oxide] | 39 | 134
28 | 372 | Cc1c(-c2ccc(NC(=O)[C@@H](NC(=O)c3ccnn3C)C3CCCCC3)cc2F)cc(Cl)c[n+]1[O-] [Example 92, (S)-5-chloro-3-(4-(2-cyclohexyl-2-(1-methyl-1H-pyrazole-5-carboxamido)acetamido)-2-fluorophenyl)-2-methylpyridine 1-oxide] |  | 
58 | 601 | Cn1nccc1C(=O)N[C@H](C(=O)Nc1ccc(-c2c[n+]([O-])ccc2Cl)c(F)c1)C1CCCCC1 [Example 93, (S)-4-chloro-3-(4-(2-cyclohexyl-2-(1-methyl-1H-pyrazole-5-carboxamido)acetamido)-2-fluorophenyl)pyridine 1-oxide] |  | 
47 | 128 | Cc1cc[n+]([O-])c(C)c1-c1ccc(NC(=O)[C@@H](NC(=O)c2ccnn2C2CC2)C2CCCCC2)cc1 [Example 94, (S)-3-(4-(2-cyclohexyl-2-(1-cyclopropyl-1H-pyrazole-5-carboxamido)acetamido)phenyl)-2,4-dimethylpyridine 1-oxide] |  | 
